Each structure is given as a SMILES string.

The test system of this test is Iba 1 and GFAP immunoreactivity. In words: Iba 1 and GFAP immunohistochemistry, hippocampus of PTZ-kindled rats. The class given is in vivo. The following applies: hippocampus CA3, 24h after the 25th PTZ injection, pre-treated with AFC or JNJ. As for the experimental part:
One day after the last kindling session (after the 25th injection), vehicle/PTZ and compound/PTZ-treated rats as well as vehicle-only-treated or non-treated (naïve) rats as controls were transcardially perfused under deep CO2-anesthesia with 0.9% NaCl-solution, 2% paraformaldehyde (PFA, in 0.1 M sodium acetate buffer, pH 6.5) and 2% PFA/0.1% glutaraldehyde (in 0.1 M sodium borate buffer, pH 8.5) (see [73]). Brains were removed immediately and placed for 24 h in 2% PFA without glutaraldehyde (in 0.1 M sodium borate buffer, pH 8.5) at 4°C for post-fixation. […]
For immunohistochemical studies, free-floating slices were incubated in 0.1 M Sørensen’s phosphate buffer (SPP) containing 1% H2O2 for 25 min. […] The immunoreactivity was evaluated using a light microscope (Axioskop, Zeiss) equipped with a CCD digital camera (AxioCam, ICc 1, Zeiss). For quantitative analysis of the GFAP and Iba 1-staining, images (20x magnification) from the hippocampal CA3 region of vehicle-only (controls) and vehicle/PTZ-treated animals (n = 10) were recorded at constant microscope adjustment and were evaluated with the LSM (LSM 510 Meta, Zeiss) using the semiautomatic image analysis software “Histogram” function. Significant differences were determined by calculating the abundance of densely stained pixels (pixel values lower than 67% of the background) using a two-tailed Wilcoxon rank sum test. […]

For the molecule `O=C(NCC1(N2CCN(c3ccccc3)CC2)CCOCC1)c1cccnc1Sc1ccccc1` [JNJ-47965567, N-[[4-(4-phenyl-piperazin-1-yl)tetrahydro-2H-pyran-4-yl]-methyl]-2-(phenyl-thio) nicotinamide], the “immunostaining for Iba 1 and GFAP compared to vehicle/PTZ-treated animals” value was “clearly reduced”.

Source of the values: publication PMC4900628, “Critical Evaluation of P2X7 Receptor Antagonists in Selected Seizure Models” (PLoS ONE, 2016).
